In brackets after ≈: the same amount, converted by molar mass. Activity calls are given as the source filed them. The rule behind the calls is not given here.
How the values were obtained:
[1] = Volume of distribution at steady state in male Beagle dog at 1 mg/kg, iv measured after 24 hrs by LC-MS/MS analysis; format: ADME, organism-based, Canis lupus familiaris; details: in vivo, read-out: Vdss
[2] = AUClast in male Sprague-Dawley rat at 2 mg/kg, po measured after 24 hrs by LC-MS/MS analysis; format: ADME, organism-based; details: in vivo
[3] = Clearance in male Beagle dog at 1 mg/kg, iv measured after 24 hrs by LC-MS/MS analysis; format: ADME, organism-based, Canis lupus familiaris; details: in vivo
[4] = Selectivity ratio of IC50 for inhibition of N-terminal GST-tagged wildtype human P38alpha (4 to 152 residues) extracted from Escherichia coli/GST-tagged PRAK (unknown origin) to IC50 for inhibition of N-terminal GST-tagged wildtype human P38alpha (4 to 152 residues) extracted from Escherichia coli/GST-tagged MK2 (unknown origin)
[5] = Selectivity ratio of IC50 for inhibition of P38alpha/GST-tagged ATF2 (unknown origin) to IC50 for inhibition of N-terminal GST-tagged wildtype human P38alpha (4 to 152 residues) extracted from Escherichia coli/GST-tagged MK2 (unknown origin)
[6] = Oral bioavailability in male Sprague-Dawley rat at 2 mg/kg measured after 24 hrs by LC-MS/MS analysis; format: ADME, organism-based; details: in vivo
[7] = Cmax in female Lewis rat at 3 mg/kg, po measured after 24 hrs by LC-MS/MS analysis; format: ADME, organism-based; details: in vivo
[8] = Oral bioavailability in male Beagle dog at 2 mg/kg measured after 24 hrs by LC-MS/MS analysis; format: ADME, organism-based, Canis lupus familiaris; details: in vivo
[9] = target: Cytochrome P450 2D6 (Homo sapiens, UniProt P10635); assay: Inhibition of CYP2D6 in human liver microsomes using dextromethorphan as substrate in presence of NADP by LC-MS/MS analysis; format: ADME, Microsome
[10] = test system: Rattus norvegicus; assay: Antiarthritic activity in Mycobacterium tuberculosis H37R-induced female Lewis rat model of arthritis assessed as reduction in clinical score at 1 mg/kg, po administered twice daily for 15 days starting from day 13 after adjuvant administration; format: functional, organism-based; details: time 15.0 day
[11] = Clearance in male Sprague-Dawley rat at 1 mg/kg, iv measured after 24 hrs by LC-MS/MS analysis; format: ADME, organism-based; details: in vivo
[12] = Cmax in male Beagle dog at 2 mg/kg, po measured after 24 hrs by LC-MS/MS analysis; format: ADME, organism-based, Canis lupus familiaris; details: in vivo
[13] = Half-life in male Sprague-Dawley rat at 1 mg/kg, iv measured after 24 hrs by LC-MS/MS analysis; format: ADME, organism-based; details: in vivo
[14] = Half-life in female Lewis rat at 3 mg/kg, po measured after 24 hrs by LC-MS/MS analysis; format: ADME, organism-based; details: in vivo
[15] = target: Cytochrome P450 2C19 (Homo sapiens, UniProt P33261); assay: Inhibition of CYP2C19 in human liver microsomes using mephenytoin as substrate in presence of NADP by LC-MS/MS analysis; format: ADME, Microsome
[16] = Half-life in male Beagle dog at 1 mg/kg, iv measured after 24 hrs by LC-MS/MS analysis; format: ADME, organism-based, Canis lupus familiaris; details: in vivo
[17] = Volume of distribution at steady state in male Sprague-Dawley rat at 1 mg/kg, iv measured after 24 hrs by LC-MS/MS analysis; format: ADME, organism-based; details: in vivo, read-out: Vdss
[18] = test system: Rattus norvegicus; assay: Antiarthritic activity in Mycobacterium tuberculosis H37R-induced female Lewis rat model of arthritis at 0.3 mg/kg, po administered twice daily for 15 days starting from day 13 after adjuvant administration; format: functional, organism-based; details: time 15.0 day
[19] = test system: PBMC; assay: Inhibition of LPS-induced IL-6 production in human PBMC cells at 0.01 to 10000 nM preincubated with compound for 1 hrs followed by LPS addition and measured after 4 hrs; format: functional, cell-based; details: dose 0.01-10000 nM, time 5.0 hrs
[20] = AUC (0 to 24 hrs) in female Lewis rat at 1 mg/kg, po measured after 24 hrs by LC-MS/MS analysis; format: ADME, organism-based; details: in vivo
[21] = test system: PBMC; assay: Inhibition of LPS-induced IL-8 production in human PBMC cells at 0.01 to 10000 nM preincubated with compound for 1 hrs followed by LPS addition and measured after 4 hrs; format: functional, cell-based; details: dose 0.01-10000 nM, time 5.0 hrs
[22] = Cmax in male Sprague-Dawley rat at 2 mg/kg, po measured after 24 hrs by LC-MS/MS analysis; format: ADME, organism-based; details: in vivo
[23] = AUClast in male Beagle dog at 2 mg/kg, po measured after 24 hrs by LC-MS/MS analysis; format: ADME, organism-based, Canis lupus familiaris; details: in vivo
[24] = target: MAP kinase-activated protein kinase 2 (Homo sapiens) (UniProt P49137); assay: Inhibition of LPS-induced MK2 phosphorylation in differentiated human THP-1 macrophage cells at 10 to 10000 nM preincubated with compound for 60 mins followed by LPS addition and measured after 30 mins by Western blot analysis; format: cell-based; details: dose 10-10000 nM, time 90.0 min
[25] = Inhibition of P38alpha/GST-tagged ATF2 (unknown origin) assessed as reduction in ATF2 phosphorylation incubated for 30 mins in presence of ATP by TR-FRET assay; design: species or system Homo sapiens
[26] = test system: Rattus norvegicus; assay: Antiarthritic activity in Mycobacterium tuberculosis H37R-induced female Lewis rat model of arthritis at 1 mg/kg, po administered twice daily for 15 days starting from day 13 after adjuvant administration; format: functional, organism-based; details: time 15.0 day
[27] = MRT in male Beagle dog at 1 mg/kg, iv measured after 24 hrs by LC-MS/MS analysis; format: ADME, organism-based, Canis lupus familiaris; details: in vivo
[28] = Solubility of compound in PBS at pH 7.4 measured after 4 to 24 hrs by LC-MS analysis; format: physicochemical; details: time 4-24 hrs
[29] = Inhibition of N-terminal GST-tagged wildtype human P38alpha (4 to 152 residues) extracted from Escherichia coli/GST-tagged MK2 (unknown origin) assessed as reduction in HSP27 phosphorylation incubated for 2 hrs in presence of ATP and HSP27-FITC peptide by fluorescence polarization based IMAP assay
[30] = MRT in male Sprague-Dawley rat at 1 mg/kg, iv measured after 24 hrs by LC-MS/MS analysis; format: ADME, organism-based; details: in vivo
[31] = Half-life in female Lewis rat at 1 mg/kg, po measured after 24 hrs by LC-MS/MS analysis; format: ADME, organism-based; details: in vivo

Sequence of MAP kinase-activated protein kinase 2 (Homo sapiens) (P49137 whole entry, looked up): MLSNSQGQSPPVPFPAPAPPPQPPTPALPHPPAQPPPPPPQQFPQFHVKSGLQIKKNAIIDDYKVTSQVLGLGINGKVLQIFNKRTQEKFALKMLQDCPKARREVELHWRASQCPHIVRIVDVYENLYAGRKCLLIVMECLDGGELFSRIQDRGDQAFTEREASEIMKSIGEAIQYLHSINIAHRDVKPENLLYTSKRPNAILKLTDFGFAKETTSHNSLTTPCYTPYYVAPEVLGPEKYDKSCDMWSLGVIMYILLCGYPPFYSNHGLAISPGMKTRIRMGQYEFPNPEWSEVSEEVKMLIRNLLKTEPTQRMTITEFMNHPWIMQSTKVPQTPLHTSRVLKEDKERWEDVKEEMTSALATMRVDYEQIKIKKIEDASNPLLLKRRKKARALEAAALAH
Sequence of Cytochrome P450 2D6 (P10635 whole entry): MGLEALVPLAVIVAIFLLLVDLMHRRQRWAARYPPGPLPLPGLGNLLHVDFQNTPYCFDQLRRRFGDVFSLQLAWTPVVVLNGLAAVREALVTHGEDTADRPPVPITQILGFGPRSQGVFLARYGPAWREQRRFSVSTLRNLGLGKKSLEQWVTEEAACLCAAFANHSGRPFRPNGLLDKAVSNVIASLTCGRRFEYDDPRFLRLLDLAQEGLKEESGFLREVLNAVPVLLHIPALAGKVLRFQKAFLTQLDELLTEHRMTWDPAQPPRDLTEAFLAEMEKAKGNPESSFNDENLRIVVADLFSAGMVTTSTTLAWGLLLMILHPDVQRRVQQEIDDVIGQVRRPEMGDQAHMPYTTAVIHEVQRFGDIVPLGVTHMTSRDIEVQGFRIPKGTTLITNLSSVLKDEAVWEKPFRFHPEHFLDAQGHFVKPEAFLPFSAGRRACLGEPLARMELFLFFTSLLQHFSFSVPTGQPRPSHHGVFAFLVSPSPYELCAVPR
Sequence of Cytochrome P450 2C19 (P33261 whole entry): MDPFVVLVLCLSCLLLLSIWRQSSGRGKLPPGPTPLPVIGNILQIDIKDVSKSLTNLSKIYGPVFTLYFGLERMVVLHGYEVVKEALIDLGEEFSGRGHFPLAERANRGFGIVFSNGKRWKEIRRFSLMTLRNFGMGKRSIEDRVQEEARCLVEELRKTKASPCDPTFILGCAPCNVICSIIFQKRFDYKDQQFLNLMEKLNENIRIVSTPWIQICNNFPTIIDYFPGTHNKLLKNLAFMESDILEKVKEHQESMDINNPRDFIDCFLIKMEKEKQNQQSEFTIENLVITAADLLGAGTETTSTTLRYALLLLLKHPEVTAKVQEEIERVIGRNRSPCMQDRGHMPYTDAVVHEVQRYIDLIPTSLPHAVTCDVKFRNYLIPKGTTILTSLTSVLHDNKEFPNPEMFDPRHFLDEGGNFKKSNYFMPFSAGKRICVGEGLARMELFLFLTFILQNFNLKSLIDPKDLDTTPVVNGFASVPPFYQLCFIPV

Question: Which Vd [1] does the source give for Cc1cnc(-c2ccnc(C(C)(C)O)n2)c(F)c1-n1c(C)cc(O[C@@H](C)c2ncc(F)cc2F)c(C)c1=O here?
Answer: The Vd was 0.8 L/kg.

Question: And the AUC(0-t) at 24 h [2]?
Answer: Its AUC(0-t) at 24 h is 4340 ng·h/mL.

Question: And the clearance [3]?
Answer: The clearance was 4.5 mL/min/kg.

Question: And the Ratio IC50 [4]?
Answer: The Ratio IC50 was 1170.

Question: And the Ratio IC50 [5]?
Answer: The Ratio IC50 was 263.

Question: What about the bioavailability [6] of the same compound?
Answer: Its bioavailability is 121%.

Question: What about the Cmax [7] of the same compound?
Answer: The Cmax was 916 ng/mL.

Question: What about the bioavailability [8] of the same compound?
Answer: The bioavailability was 68%.

Question: What about the IC50 [9] of the same compound?
Answer: Its IC50 is over 40000 nM.

Question: And the Activity [10]?
Answer: The Activity was “Active; Comparable To 3 Mg/Kg Of Compound 1”.

Question: What about the clearance [11] of the same compound?
Answer: Its clearance is 9.6 mL/min/kg.

Question: And the Cmax [12]?
Answer: The Cmax was 1120 ng/mL.

Question: What about the half-life [13] of the same compound?
Answer: The half-life was 2.8 h.

Question: And the half-life [14]?
Answer: The half-life was 3.5 h.

Question: And the IC50 [15]?
Answer: Its IC50 is over 40000 nM.

Question: What about the half-life [16] of the same compound?
Answer: Its half-life is 2.9 h.

Question: What about the Vd [17] of the same compound?
Answer: Its Vd is 1.2 L/kg.

Question: And the Activity [18]?
Answer: Its Activity is “Active; Significant Clinical Effect Observed”.

Question: What about the inhibition [19] of the same compound?
Answer: The inhibition was “Active”.

Question: And the AUC(0-t) at 24 h [20]?
Answer: The AUC(0-t) at 24 h was 2390 ng·h/mL.

Question: What about the inhibition [21] of the same compound?
Answer: The inhibition was “Active”.

Question: What about the Cmax [22] of the same compound?
Answer: Its Cmax is 1140 ng/mL.

Question: And the AUC(0-t) at 24 h [23]?
Answer: Its AUC(0-t) at 24 h is 5080 ng·h/mL.

Question: And the inhibition [24]?
Answer: Its inhibition is “Active”.

Question: What about the IC50 [25] of the same compound?
Answer: Its IC50 is 1000 nM.

Question: And the Activity [26]?
Answer: The Activity was “Active”.

Question: What about the MRT [27] of the same compound?
Answer: The MRT was 2.9 h.

Question: And the solubility [28]?
Answer: The solubility was 88.3 µg/mL (≈ 168 µM).

Question: What about the IC50 [29] of the same compound?
Answer: The IC50 was 5 nM.

Question: What about the MRT [30] of the same compound?
Answer: The MRT was 2.2 h.

Question: What about the half-life [31] of the same compound?
Answer: The half-life was 3.9 h.

From ChEMBL document CHEMBL6096702, “Discovery of a Novel p38α-MK2 Complex Inhibitor as a Potential Choice for Autoimmune Diseases” (J Med Chem, 2025)
